Test results from PubChem BioAssay (NCI).
“And” between values parts separate entries of the source, which are not always exact repeats. Equal values may be shown once.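 1) Cells in 96-well plates. 2) Compound, 48 h, 5 concentrations. 3) Linear interpolation between surrounding doses. 4) Unreached endpoint = highest concentration. The concentration for 50% growth inhibition is given as GI50. TGI: total growth inhibition.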

Tests used:
Assay in all cases: growth of human tumour cells (NCI), 48 h
[1] = test system: 786-0 renal
[2] = test system: A498 renal
[3] = test system: A549 NSCLC
[4] = test system: ACHN renal
[5] = test system: CAKI-1 renal
[6] = test system: CCRF-CEM leukemia
[7] = test system: COLO 205 colon
[8] = test system: DLD-1 colon
[9] = test system: DMS 114 small cell lung
[10] = test system: DMS 273 small cell lung
[11] = test system: EKVX NSCLC
[12] = test system: HCC-2998 colon
[13] = test system: HCT-116 colon
[14] = test system: HCT-15 colon
[15] = test system: HL-60(TB) leukemia
[16] = test system: HOP-18 NSCLC
[17] = test system: HOP-92 NSCLC
[18] = test system: HT29 colon
[19] = test system: IGROV1 ovarian
[20] = test system: K-562 leukemia
[21] = test system: KM12 colon
[22] = test system: KM20L2 colon
[23] = test system: LOX IMVI melanoma
[24] = test system: LXFL 529 NSCLC
[25] = test system: M14 melanoma
[26] = test system: M19-MEL melanoma
[27] = test system: MALME-3M melanoma
[28] = test system: MOLT-4 leukemia
[29] = test system: NCI-H226 lung
[30] = test system: NCI-H23 lung
[31] = test system: NCI-H460 lung
[32] = test system: NCI-H522 lung
[33] = test system: OVCAR-3 ovarian
[34] = test system: OVCAR-4 ovarian
[35] = test system: OVCAR-5 ovarian
[36] = test system: OVCAR-8 ovarian
[37] = test system: RPMI-8226 leukemia
[38] = test system: RXF 393 renal
[39] = test system: SF-268 CNS
[40] = test system: SF-295 CNS
[41] = test system: SF-539 CNS
[42] = test system: SK-MEL-2 melanoma
[43] = test system: SK-MEL-28 melanoma
[44] = test system: SK-MEL-5 melanoma
[45] = test system: SK-OV-3 ovarian
[46] = test system: SN12C renal
[47] = test system: SNB-19 CNS
[48] = test system: SNB-75 CNS
[49] = test system: SNB-78 CNS
[50] = test system: SR leukemia
[51] = test system: SW-620 colon
[52] = test system: TK-10 renal
[53] = test system: U251 CNS
[54] = test system: UACC-257 melanoma
[55] = test system: UACC-62 melanoma
[56] = test system: UO-31 renal
[57] = test system: XF 498 CNS
[58] = test system: BT-549 breast
[59] = test system: DU-145 prostate
[60] = test system: HOP-62 NSCLC
[61] = test system: HS 578T breast
[62] = test system: MCF7 breast
[63] = test system: MDA-MB-231 breast
[64] = test system: MDA-MB-435
[65] = test system: MDA-N
[66] = test system: NCI/ADR-RES ovarian
[67] = test system: PC-3 prostate
[68] = test system: T-47D breast

## CCCc1c(C(=O)OCC)[nH]c(-c2ccc(-c3[nH]c(C(=O)OCC)c(CCC)c3C(=O)OCC)s2)c1C(=O)OCC
[1]
  TGI: > 100000 nM
[2]
  TGI: > 100000 nM
[3]
  TGI: > 100000 nM
[4]
  TGI: > 100000 nM
[5]
  TGI: > 100000 nM
[6]
  TGI: > 100000 nM
[7]
  TGI: > 100000 nM
[8]
  TGI: > 100000 nM
[9]
  TGI: > 100000 nM
[10]
  TGI: > 100000 nM
[11]
  TGI: > 100000 nM
[12]
  TGI: > 100000 nM
[13]
  TGI: > 100000 nM
[14]
  TGI: > 100000 nM
[15]
  TGI: > 100000 nM
[16]
  TGI: > 100000 nM
[17]
  TGI: 85200 nM
[18]
  TGI: > 100000 nM
[19]
  TGI: > 100000 nM
[20]
  TGI: > 100000 nM
[21]
  TGI: > 100000 nM
[22]
  TGI: > 100000 nM
[23]
  TGI: 66300 nM
[24]
  TGI: > 100000 nM
[25]
  TGI: > 100000 nM
[26]
  TGI: > 100000 nM
[27]
  TGI: > 100000 nM
[28]
  TGI: > 100000 nM
[29]
  TGI: > 100000 nM
[30]
  TGI: > 100000 nM
[31]
  TGI: > 100000 nM
[32]
  TGI: > 100000 nM
[33]
  TGI: > 100000 nM
[34]
  TGI: > 100000 nM
[35]
  TGI: > 100000 nM
[36]
  TGI: > 100000 nM
[37]
  TGI: > 100000 nM
[38]
  TGI: 28500 nM
[39]
  TGI: > 100000 nM
[40]
  TGI: > 100000 nM
[41]
  TGI: > 100000 nM
[42]
  TGI: 57200 nM
[43]
  TGI: > 100000 nM
[44]
  TGI: > 100000 nM
[45]
  TGI: 98600 nM
[46]
  TGI: > 100000 nM
[47]
  TGI: > 100000 nM
[48]
  TGI: 58000 nM
[49]
  TGI: > 100000 nM
[50]
  TGI: > 100000 nM
[51]
  TGI: > 100000 nM
[52]
  TGI: > 100000 nM
[53]
  TGI: > 100000 nM
[54]
  TGI: > 100000 nM
[55]
  TGI: > 100000 nM
[56]
  TGI: > 100000 nM
[57]
  TGI: > 100000 nM

## CC1=C2C(=CC(C)(C)[C@@H]2O)C(=O)[C@](C)(O)C12CC2
[1]
  TGI: 53.2 nM and 67 nM
[2]
  GI50: 18.3 nM and 10.8 nM
  TGI: 49.9 nM and 55.3 nM
[3]
  TGI: 191 nM and 1120 nM
[4]
  GI50: 7.96 nM
  TGI: 62.5 nM and 114 nM
[58]
  GI50: 30.5 nM
  TGI: 107 nM and 78.8 nM
[5]
  GI50: 12.9 nM and 43.6 nM
  TGI: 69.7 nM and 594 nM
[7]
  GI50: 20.9 nM
  TGI: 98.9 nM and 97.7 nM
[8]
  TGI: 82.5 nM
[9]
  TGI: 101 nM
[10]
  TGI: 18.9 nM
[59]
  GI50: 5.45 nM
  TGI: 26.2 nM
[11]
  GI50: 40.9 nM
  TGI: 170 nM and 221 nM
[12]
  GI50: 23.7 nM
  TGI: 79 nM and 42.3 nM
[13]
  TGI: 186 nM and 193 nM
[14]
  GI50: 5.14 nM
[15]
  GI50: 9.01 nM and 19.4 nM
  TGI: 49.5 nM and 83.2 nM
[16]
  TGI: 86.5 nM
[60]
  GI50: 23.3 nM
  TGI: 100 nM and 87.2 nM
[17]
  GI50: 26.8 nM
  TGI: 88.7 nM and 71.2 nM
[61]
  GI50: 27.6 nM
  TGI: 85.5 nM and 39.5 nM
[18]
  GI50: 6.23 nM
  TGI: 208 nM and 71.3 nM
[19]
  GI50: 23.1 nM
  TGI: 105 nM and 69.8 nM
[20]
  GI50: 14.5 nM
  TGI: 369 nM and 596 nM
[21]
  GI50: 20.5 nM
  TGI: 123 nM and 411 nM
[22]
  TGI: 74.4 nM
[23]
  GI50: 12.5 nM
  TGI: 52.9 nM and 38.4 nM
[24]
  TGI: 92.7 nM
[25]
  TGI: 53.7 nM and 43.1 nM
[26]
  TGI: 163 nM
[27]
  GI50: 48.6 nM
  TGI: 112 nM and 54 nM
[62]
  GI50: 4.72 nM
  TGI: 46.9 nM and 123 nM
[63]
  GI50: 51.3 nM
[64]
  GI50: 25 nM and 14.7 nM
  TGI: 70.6 nM and 31.9 nM
[65]
  GI50: 12.6 nM
  TGI: 42.4 nM and 27.8 nM
[28]
  GI50: 13.7 nM
  TGI: 134 nM and < 20.8 nM
[29]
  GI50: 70.9 nM
  TGI: 232 nM and 171 nM
[30]
  GI50: 15.7 nM
  TGI: 60.7 nM and 26.6 nM
[31]
  GI50: 5.75 nM
  TGI: 43.7 nM and < 31.1 nM
[32]
  GI50: 13.7 nM
  TGI: 48.4 nM and < 23.2 nM
[66]
  GI50: 22.3 nM
  TGI: 104 nM and 15.5 nM
[33]
  GI50: 8.35 nM
  TGI: 32.7 nM and 42.2 nM
[34]
  GI50: 14.7 nM
  TGI: 201 nM and 45.8 nM
[35]
  TGI: 95.4 nM and 37.4 nM
[36]
  GI50: 29.4 nM
  TGI: 182 nM and 1290 nM
[67]
  TGI: 164 nM and 19.4 nM
[38]
  TGI: 19.9 nM
[39]
  GI50: 9.73 nM
  TGI: 72.7 nM and 65.9 nM
[40]
  GI50: 26 nM
  TGI: 110 nM and 50.3 nM
[41]
  TGI: 54.8 nM and 38 nM
[42]
  GI50: 19.6 nM
  TGI: 52.5 nM and 22.3 nM
[43]
  TGI: 75.6 nM and 89.1 nM
[44]
  GI50: 15.9 nM
  TGI: 35.8 nM and 26.9 nM
[45]
  GI50: 29.4 nM
  TGI: 213 nM and 67.6 nM
[46]
  GI50: 38.7 nM
  TGI: 216 nM and 184 nM
[47]
  GI50: 52.3 nM
  TGI: 371 nM and 279 nM
[48]
  GI50: 31.5 nM and < 14.2 nM
  TGI: 72.3 nM and 27.2 nM
[50]
  GI50: 3.51 nM
  TGI: 74.4 nM and 268 nM
[51]
  GI50: 5.97 nM and 16.8 nM
  TGI: 97.6 nM and 131 nM
[68]
  GI50: 48.9 nM
  TGI: 359 nM and 97.4 nM
[52]
  GI50: 51.1 nM
  TGI: 222 nM and 236 nM
[53]
  GI50: 16.9 nM
[54]
  TGI: 328 nM and 259 nM
[55]
  TGI: 62.3 nM and 67.8 nM
[56]
  GI50: 17.4 nM
  TGI: 65.5 nM and 76.8 nM
[57]
  TGI: 32.6 nM
